{"source": "patent US20250319139A1", "about": "“METHODS FOR TREATING NEUROINFLAMMATION” (University of Virginia Patent Foundation, priority 2021, published 2025)", "format_in_all_cases": "in vivo, mouse", "key": {"IL-1β": {"system": "IL-1β", "assay": "ELISA of IL-1β in the serum", "details": "young mice, 100 mg/kg intraperitoneal 1 h before and 6 h after 120-min MCAO; 24 h after MCAO; vs saline", "procedure": "Mice were weighed and anesthetized with isoflurane at 24 h after MCAO. Blood samples were obtained from the right heart after thoracotomy. Blood was centrifuged (13,000 g, 4° C.) after it had been placed at 4° C. for 2 h for the collection of serum. After the collection of blood, mice were perfused with 4° C. saline for brain tissue harvesting. The cerebral cortex (anteroposterior: -1.5 to 2.5 mm, mediolateral: 1.0 to 3.0 mm) was dissected out. All dissection procedures were performed on ice. IL-10, IL-17, IL-1β and IL-6 in the serum and brain were detected by using ELISA kits (catalog number: M1000B, M1700, MLB00C and D6050, R&D SYSTEM, Inc., Minneapolis, MN, USA) as we described before. The brain tissues were homogenized on ice in the RIPA buffer containing 25 mM Tris-HCl with pH 7.6, 150 mM NaCl, 1% sodium deoxycholate and 0.1% SDS (catalog number: 89901, Thermo Scientific, Rockford, IL, USA) and a protease inhibitor cocktail containing 10 mg/ml aproteinin, 5 mg/ml […], 5 mg/ml leupetin and 1 mM phenylmethane sulfonylfluoride (catalog number: SRE0055, Sigma-Aldrich, St. Louis, MO, USA). The supernatant was collected for ELISA detection after being centrifuged for 20 min (13,000 g, 4° C.) and the protein concentration was determined by the BCA method. Cytokines in the serum and supernatant of brain were detected according to the manufacturer's instruction. […]"}, "C3ar": {"system": "C3ar", "assay": "C3ar immunofluorescent staining of hippocampus", "details": "young adult mice with exercise and surgery; intraperitoneal valeric acid", "procedure": "The immunofluorescent labeling and quantification of the staining were performed as described before. Briefly, brain was fixed in 4% paraformaldehyde at 4° C. for 24 h and then incubated in 30% sucrose over night at 4° C. before being frozen in optimal cutting temperature compound. Coronal 20-μm thick sections were cut sequentially from Bregma -3 to -6 mm by using a cryostat and mounted on microscope slides. After being washed in Tris-buffered saline (TBS), sections were blocked in 10% donkey serum plus 1% bovine serum albumin (BSA) in TBS containing 0. 3% triton-X 100 for 2 h at room temperature and then incubated at 4° C. overnight with the following primary antibodies: rabbit monoclonal anti-C3 antibody (1:50), goat monoclonal anti-GFAP antibody (1:200), rat monoclonal anti-[…] antibody (1:50) and rabbit monoclonal anti-Iba-1 antibody (1:200). Sections were rinsed in TBS with 0.1% Triton-x 100. […] The quantification was performed as described previously. […] The number of pixels per image with intensity above a predetermined threshold level was considered as a positively stained area for an interested marker and quantified using the Image-pro plus 6.0 (Media Cybernetics, Inc., Rockville, MD, USA) and presented as percentage of positive area in the total area. […] All quantitative analyses were performed in a blinded manner."}, "C57BL/6J mice": {"system": "C57BL/6J mice", "assay": "Barnes maze test, old mice", "details": "old mice with exercise and surgery; intraperitoneal valeric acid once a week vs normal saline", "excerpt": "After one-week acclimation, old mice (18-month old male C57BL/6J mice) weighing 30-36 g were used in three studies. In the first experiment, old mice were randomly assigned to: 1) control group, 2) exercise group in which mice had 4-week exercise at 35-40% maximal capacity, 3) surgery group, and 4) Exe+Sur group in which mice had 4-week exercise at 35-40% maximal capacity before surgery. The animals were used for learning and memory tests starting 4 days after the surgery (n=12) or their brains were harvested for biochemical assays at 48 h after the surgery (n=10 or 12), for immunofluorescent staining at 48 h and 19 days after the surgery (n=6), and for Golgi staining at 19 days after the surgery (n=8). Blood and feces from mice of the 4 groups were harvested for SCFA measurement at 7 days after the surgery (n=7) and for 16S analyses at 3 and 7 days after the surgery (n=8) or at the end of 4-week exercise protocol or at the corresponding time in the first 2 groups (n=16). Mice for tissue harvesting were different cohorts that were used for learning and memory tests. In second experiment, old mice were randomly assigned to: 1) Trans-Old Control+Sur group, and 2) Trans-Old Exe+Sur group. […] Learning and memory were evaluated from 4 days after surgery (n=10). […] The latency to enter the target box during each trial was recorded by an ANY-Maze video tracking system (SD Instruments)."}}, "data": [{"smiles": "CCCCC(=O)O", "note": "[valeric acid]", "values": [{"measurement": "IL-1β in the blood", "setting": "IL-1β", "value": "increased"}, {"measurement": "exercise-induced reduction of C3ar in the hippocampus", "setting": "C3ar", "value": "this reduction was blocked"}, {"measurement": "performance in Barnes maze", "setting": "C57BL/6J mice", "value": "impaired the performance"}]}]}
